Results as given in paper PMC11207111, “Assessment of the Activity of Nitroisoxazole Derivatives against Trypanosoma cruzi” (Molecules, 2024).

Assays:
[1] = tested on: epimastigote of T. cruzi Dm28; experiment: Trypanocidal activity (MTT) on epimastigotes; assay type: cell-based; settings: Trypanosoma cruzi; for killing at 100 µM: 24 h, n.a = not active, read-out: % T. cruzi Epimastigote (trypanocidal effect); for IC50: T. cruzi Dm28, 24 h, read-out: IC50 T. cruzi E (epimastigote)
Protocol: As a preliminary step, a study of nitroisoxazole derivatives on the epimastigote form of T. cruzi was performed. Despite the epimastigote form not being a clinical form present in mammals, its easy handling has allowed screening for the trypanocidal activity of various compounds. It is worth noting that, during the intracellular life cycle of the parasite, a form similar to the epimastigote, which is biochemically and morphologically identical to the form present in the vector, has been described. […] RPMI 1640 medium) for 24 h. […] The effects of the compounds on trypomastigote and Vero cell viability were evaluated by tetrazolium salt reduction assay (MTT). […] The plates were kept overnight at 37 °C (28 °C for epimastigotes), and the optical density (OD) was determined using a 96-well microplate reader (Vantaa, Finland) at 570 nm. Under these conditions, the OD is directly proportional to each well’s viable number of cells. The experiments were performed in triplicate across three different assays.

[2] = ORAC-FL antioxidant capacity; settings: relative to Trolox; phosphate buffer 75 mM, pH 7.4, 37 °C
Protocol: To corroborate the generation of the nitro radical, the antioxidant capacity of the series under study was determined by ORAC-FL methodology, employing a fluorescent probe to capture oxygen-centered radicals (Table 2). The ORAC-FL values of the studied compounds are close to the reference value of Trolox, indicating a low antioxidant capacity. For compounds (1-3), the presence of amino substituents decreases antioxidant activity due to their […] characteristics, preventing the presence of labile hydrogens. […] Compounds 4 and 10 present similar ORAC indexes as aromatic rings with high electron density insert the transfer of labile protons. Antioxidant capacity was determined using the ORAC-fluorescence methodology (ORAC-FL). The analysis used a 96-well white polystyrene plate reader (EnSpire multimode PerkinElmer, Waltham, MA, USA). The reaction was carried out in phosphate buffer (75 mM, pH 7.4). […] A blank with FL and AAPH, using dimethyl sulfoxide instead of the antioxidant solution, was used in each assay. […] The inhibitor capacity was expressed as ORAC-FL values and quantified by integrating the area under the curve (AUCNET). All reaction mixtures were prepared in triplicate, and at least three independent assays were performed for each sample. The area under the fluorescence decay curve (AUC) was calculated by integrating the fluorescence decay where F0 is the initial fluorescence read at 0 min, and F is the fluorescence read at the time. The AUCNET corresponding to the sample was calculated by subtracting the AUC corresponding to the blank. Data were processed using Origin […].5 SR2 (San Francisco, CA, USA). The ORAC-FL indices were calculated according to the following Equation (1): (1) ORAC-[…]]

T. cruzi trypomastigotes = experiment: Generation of ROS (DCFH2-DA fluorescent probe); assay type: cell-based, Trypanosoma cruzi; settings: 100 µM; for ROS generation (DCF fluorescence intensity): 40 min, vs control without compound
Protocol: To generate radical species on T. cruzi trypomastigotes, intracellular free radicals were determined using the fluorescent probe dichlorofluorescein (DCF).
The cultures were incubated with a 20 µM DCFH2-DA solution for 15 min at 28 °C. Then, they were centrifuged at 3500 rpm and washed 2 times with phosphate buffer saline (PBS) pH 7.4. Cells loaded with DCFH2-DA were transferred to a Nunc® fluorescence 96-well plate (Thermo Fisher Scientific Inc., Waltham, MA, USA), where the nitroisoxazoles derivates were added at 100 µM. Fluorescence (exi: 488 nm, emi: 528 nm) was recorded for 40 min in a BioTek (Winooski, VT, USA) Synergy HT spectrofluorometer. The area under increase curves over time was determined using Oring 8 software, with areas normalized to control. Results are the means ± SD of three independent experiments.

[3] = tested on: trypomastigote of T. cruzi Dm28; experiment: Trypanocidal activity (MTT) on trypomastigotes; assay type: cell-based; settings: Trypanosoma cruzi; for killing at 100 µM: 24 h, n.a = not active, read-out: % T. cruzi Trypomastigote (trypanocidal effect); for IC50: T. cruzi Dm28, 24 h
Protocol: As a preliminary step, a study of nitroisoxazole derivatives on the epimastigote form of T. cruzi was performed. Despite the epimastigote form not being a clinical form present in mammals, its easy handling has allowed screening for the trypanocidal activity of various compounds. It is worth noting that, during the intracellular life cycle of the parasite, a form similar to the epimastigote, which is biochemically and morphologically identical to the form present in the vector, has been described. […] This is consistent with studies by Fonseca-Berzal et al. […] Additionally, compounds with higher activity have aromatic rings as substituents for nitroisoxazoles, confirming what was described Do […] [40]. […] It has also been determined that the presence of an isoxazole is essential for activity, as its aromatic structure contains a weak nitrogen-oxygen bond that, under different reaction conditions, can undergo ring cleavage, increasing activity. The results obtained on epimastigotes cannot be conclusive for determining potential Chagas agents, so conducting studies on the infective, extracellular, non-replicative trypomastigote form of T. cruzi present in humans is essential. […] RPMI 1640 medium) for 24 h. […] The effects of the compounds on trypomastigote and Vero cell viability were evaluated by tetrazolium salt reduction assay (MTT). […] The plates were kept overnight at 37 °C (28 °C for epimastigotes), and the optical density (OD) was determined using a 96-well microplate reader (Vantaa, Finland) at 570 nm. Under these conditions, the OD is directly proportional to each well's viable number of cells. The experiments were performed in triplicate across three different assays.

Vero mammalian cells = experiment: Cytotoxicity (MTT) on Vero cells; assay type: cell-based; settings: Chlorocebus sabaeus, 24 h
Protocol: Additionally, the cytotoxicity of the compounds on VERO mammalian cells was assessed (Table 4). […] It is observed that the majority of the derivatives present considerable cytotoxicity. […] RPMI 1640 medium) for 24 h. […] The effects of the compounds on trypomastigote and Vero cell viability were evaluated by tetrazolium salt reduction assay (MTT). […] The plates were kept overnight at 37 °C (28 °C for epimastigotes), and the optical density (OD) was determined using a 96-well microplate reader (Vantaa, Finland) at 570 nm. Under these conditions, the OD is directly proportional to each well’s viable number of cells. The experiments were performed in triplicate across three different assays.

[4] = Cyclic voltammetry (reduction of the nitro group); assay type: physicochemical; set-up: key to −EpcI / −EpcII / −EpaII / −EpaI: potentials in V vs Ag/AgCl; |ΔEp|: unit not given here
Excerpt: The chemistry mechanism of reduction in nitroisoxazole derivatives was investigated using cyclic voltammetry.
The peak near −1.32 V corresponds to a quasi-reversible one-electron transfer, according to the criteria of Nicholson–Shain [26] (Table 1), attributable to the species −NO2/NO2.− . The latter species stable anion radical at room temperature. […] An irreversible peak at −0.93 V to the mono-electronic transfer −HNO2/HNO2.− is observed, coupled with a chemical reaction associated with […] of the formed radical. This was evidenced by the addition of NaOH (1 M), which caused a decrease in the Ic peak (Figure 2c).
As previously described, an irreversible signal assigned to hydroxylamine oxidation to a nitroso derivative is also observed for N-acylhydrazones organometallic compounds with a pendant 5-nitrofuryl group. […] Compound 7, which has the least negative reduction potential, can be attributed to introducing a nitro group in the para position of the nitroisoxazole ring. This effect can also be observed in derivatives containing halogens in the same position.
Electrochemical characterization of the new compounds was performed through cyclic voltammetry (CV) on a 693 VA Metrohm instrument (Tokyo, Japan) equipped with a 694 VA Stand converter and 693 VA processor. Potentials were recorded against the Ag/AgCl reference electrode; a hanging drop of mercury (HDME) was used as a working electrode, and platinum was used as an auxiliary electrode. Tetrabutylammonium perchlorate (TBAP, 0.1 M) in DMSO was used as a supporting electrolyte under an N2 atmosphere at room temperature. Using Nicholson´s procedure, the Ipa/Ipc values (RNO2/RNO2^−) were measured from each cyclic voltammogram with a scan rate between 0.1 and 2.5 V/s.

[5] = cyclic voltammetry at 2.0 V/s, DMSO, 0.1 M TBAP, vs Ag/AgCl

Ipa/Ipc ([4]; cyclic voltammetry at 2.0 V/s)	|ΔEp| ([4]; cyclic voltammetry at 2.0 V/s)	−EpaII [4, 5]	−EpcII [4, 5]	melting point	−EpcI [4, 5]	irreversible peak potential, mono-electronic transfer −HNO2/HNO2.− ([4]; cyclic voltammogram, Figure 2b)	−EpaI [4, 5]	IIIc couple potential (formation of a hydroxylamine derivative) ([4]; cyclic voltammogram, Figure 2d)	SMILES	killing at 100 µM [1]	IC50 [1]	ORAC-FL Index [2]	ROS generation (DCF fluorescence intensity) (T. cruzi trypomastigotes)	ROS generation compared with Nfx (T. cruzi trypomastigotes; Figure 3)	killing at 100 µM [3]	IC50 [3]	IC50 (Vero mammalian cells)
−0.02	110	0.71	0.82	169 to 171 °C	–	–	–	–	Cc1noc(/C=C/c2ccc(F)cc2)c1[N+](=O)[O-] [Compound 5, (E)-5-(4-Fluorostyryl)-3-methyl-4-nitroisoxazole]	47 ± 1%	400 ± 3 µM	0.74 ± 0.05	increase in fluorescence intensity	more reactive oxygen species (ROS) than Nfx	19 ± 3%	> 400 µM	> 400 µM
−0.34	150	1.02	1.17	270 °C (dec.)	0.93	−0.93 V	–	–	Cc1noc(/C=C/c2ccc(O)c(O)c2)c1[N+](=O)[O-] [Compound 8, (E)-4-(2-(3-Methyl-4-nitroisoxazol-5-yl)vinyl)benzene-1,2-diol]	32 ± 5%	> 400 µM	1.0 ± 0.1	did not show ROS generation	–	16 ± 2%	> 400 µM	398.1 ± 0.3 µM
−0.17	160	1.07	0.91	189 to 191 °C	0.66	–	0.82	−1.14 V	COc1cc(/C=C/c2onc(C)c2[N+](=O)[O-])ccc1O [Compound 9, (E)-2-Methoxy-4-(2-(3-methyl-4-nitroisoxazol-5-yl)vinyl)phenol]	52 ± 4%	166 ± 4 µM	0.7 ± 0.2	did not show ROS generation	–	15 ± 3%	400 ± 2 µM	244.5 ± 0.5 µM
–	–	–	1.21	224 to 226 °C	0.79	–	–	–	CCN(CC)c1ccc2cc(/C=C/c3onc(C)c3[N+](=O)[O-])c(=O)oc2c1 [Compound 11, (E)-7-(Diethylamino)-3-(2-(3-methyl-4-nitroisoxazol-5-yl)vinyl)-2H-chromen-2-one]	–	> 400 µM	0.21 ± 0.01	increase in fluorescence intensity	–	10 ± 4%	400 ± 5 µM	125.9 ± 0.1 µM
−0.36	90	0.87	0.96	196 to 199 °C	–	–	–	–	Cc1noc(/C=C/c2cn(-c3ccccc3)c3ccccc23)c1[N+](=O)[O-] [Compound 12, (E)-3-Methyl-4-nitro-5-(2-(1-phenyl-1H-indol-3-yl)vinyl)isoxazole]	5 ± 2%	> 400 µM	0.4 ± 0.1	did not show ROS generation	–	16 ± 2%	> 400 µM	141 ± 6 µM
−0.41	90	0.90	0.99	217 to 220 °C	0.75	–	–	–	Cc1noc(/C=C/c2cn(-c3ccc(Cl)cc3)c3ccccc23)c1[N+](=O)[O-] [Compound 13, (E)-5-(2-(1-(4-Chlorophenyl)-1H-indol-3-yl)vinyl)-3-methyl-4-nitroisoxazole]	–	> 400 µM	0.4 ± 0.1	did not show ROS generation	–	14 ± 3%	> 400 µM	102 ± 6 µM
–	–	–	1.41	174 to 177 °C	0.78	–	–	–	Cc1noc(/C=C/c2cccc(Br)c2)c1[N+](=O)[O-] [Compound 16, (E)-5-(3-Bromostyryl)-3-methyl-4-nitroisoxazole]	19 ± 3%	> 400 µM	0.54 ± 0.07	did not show ROS generation	–	22 ± 6%	> 400 µM	141 ± 4 µM
–	–	–	1.53	195 to 198 °C	0.81	–	–	–	Cc1noc(/C=C/c2ccc(Br)cc2)c1[N+](=O)[O-] [Compound 17, (E)-5-(4-Bromostyryl)-3-methyl-4-nitroisoxazole]	27 ± 1%	> 400 µM	0.4 ± 0.2	did not show ROS generation	–	15 ± 5%	> 400 µM	> 400 µM
